From patent US11939327B2, “Heterocyclic compounds” (Takeda Pharmaceutical Company Limited, priority 2017, dated 2024) come the findings set out here.

For the assay, the target named is T1, human GluR1 flip (Homo sapiens, UniProt P42261).
T1 construct: expressed in transfected cells; host or cells: CHO-K1
T1 sequence (P42261 19-906 isoform P42261-2 limits assumed): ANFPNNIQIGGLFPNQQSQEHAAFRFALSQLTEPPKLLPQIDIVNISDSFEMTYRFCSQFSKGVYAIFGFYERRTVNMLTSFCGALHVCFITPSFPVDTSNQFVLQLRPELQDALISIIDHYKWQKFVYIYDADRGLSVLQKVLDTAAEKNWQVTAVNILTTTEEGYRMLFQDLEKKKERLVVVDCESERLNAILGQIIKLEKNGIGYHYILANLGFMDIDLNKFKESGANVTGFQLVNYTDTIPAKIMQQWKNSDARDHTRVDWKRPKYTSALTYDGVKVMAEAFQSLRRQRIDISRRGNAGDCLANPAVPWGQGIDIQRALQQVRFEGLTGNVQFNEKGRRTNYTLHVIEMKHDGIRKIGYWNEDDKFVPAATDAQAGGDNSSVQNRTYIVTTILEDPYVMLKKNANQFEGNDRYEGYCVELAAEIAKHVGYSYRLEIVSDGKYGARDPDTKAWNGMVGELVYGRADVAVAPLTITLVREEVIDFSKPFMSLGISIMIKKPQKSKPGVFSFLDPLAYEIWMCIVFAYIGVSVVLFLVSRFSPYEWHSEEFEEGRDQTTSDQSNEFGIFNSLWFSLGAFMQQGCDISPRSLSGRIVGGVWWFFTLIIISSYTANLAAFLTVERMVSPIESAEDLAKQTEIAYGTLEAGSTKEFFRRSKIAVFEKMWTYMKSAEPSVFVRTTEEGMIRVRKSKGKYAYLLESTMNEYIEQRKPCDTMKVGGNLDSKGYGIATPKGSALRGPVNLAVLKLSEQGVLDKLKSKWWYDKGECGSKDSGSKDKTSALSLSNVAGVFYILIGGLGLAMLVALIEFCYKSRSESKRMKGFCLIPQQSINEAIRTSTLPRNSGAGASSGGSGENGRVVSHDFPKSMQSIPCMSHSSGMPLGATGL
T1 sequence (Q9Y698 whole entry partner): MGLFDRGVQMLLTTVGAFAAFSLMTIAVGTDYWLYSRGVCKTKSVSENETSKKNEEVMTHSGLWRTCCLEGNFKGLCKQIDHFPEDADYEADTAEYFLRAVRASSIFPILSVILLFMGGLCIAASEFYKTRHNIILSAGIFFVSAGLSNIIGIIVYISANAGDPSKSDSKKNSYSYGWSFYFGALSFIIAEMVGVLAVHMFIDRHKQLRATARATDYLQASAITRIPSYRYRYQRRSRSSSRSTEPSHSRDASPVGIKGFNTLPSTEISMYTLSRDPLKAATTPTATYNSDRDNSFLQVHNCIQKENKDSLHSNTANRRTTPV
Put plainly: AMPA receptor function-enhancing activity using calcium influx as index (CHO-K1/GluR1 flip/stargazin-expressing cells). The format is cell-based. Particulars: CHO-K1, test compound 30 μM with 3 mM glutamic acid, 100% = 3 mM glutamic acid + 300 μM cyclothiazide, 0% = 3 mM glutamic acid alone, read-out: hGluR1 flip/30 μM (%). An excerpt: Experimental Example 1 Measurement method of AMPA receptor function-enhancing activity of compound using calcium influx as index
(1) Construction of Expression Gene
Human GluR1 flip cDNA was amplified by PCR method using forward primer […] (SEQ ID NO: 1) and reverse primer […] (SEQ ID NO: 2) artificially synthesized using human brain-derived cDNA (BD Bioscience) as a template. The amplified product was digested with restriction enzymes EcoRI, NotI (TAKARA SHUZO CO. LTD.) and incorporated into the same site of pcDNA3.1(+) (Invitrogen) to construct pcDNA3.1(+)/human GluR1 flip gene. Human stargazin cDNA was amplified by PCR method using forward primer […] (SEQ ID NO: 3) and reverse primer […] (SEQ ID NO: 4) artificially synthesized using human hippocampus cDNA as a template. The amplified product was digested with restriction enzymes XhoI, BamHI (TAKARA SHUZO CO. LTD.) and incorporated into the same site of pcDNA3.1(−) (Invitrogen) to construct pcDNA3.1 Zeo(−)/human stargazing gene.
(2) Construction of GluR1 Flip/Stargazin Expressing Cell
CHO-K1 cells passaged in a culture medium (Ham's F12 medium (Invitrogen) added with 10% inactivated fetal bovine serum (Morgate) and penicillin, streptomycin (Invitrogen)) were detached using 0.05% trypsin and 0.53 mM EDTA (Invitrogen) diluted with D-PBS(−). The detached cells were suspended in a culture medium, and recovered by centrifugation at 1,000 rpm. The recovered cells were re-suspended in D-PBS(−) and added into 0.4 cm electroporation cuvette (BioRad). pcDNA3.1(+)/human GluR1 flip gene (5 μg) and pcDNA3.1 Zeo(−)/human stargazin gene (15 μg) were added, and introduced into CHO-K1 cells under the conditions of 950 μFd, […] and using Gene Pulser II (BioRad). The introduced cells were cultured overnight in a culture medium. The next day, using a selection medium (culture medium added with zeocin (Invitrogen) at 250 μg/mL), the cells were plated in a 96 well plate at 250 cells/well. The clones showing drug resistance were selected, and GluR1 flip/stargazin expression clones were selected by an assay method shown below using calcium influx as an index.
(3) Measurement Method of AMPA Receptor Function-Enhancing Activity of Compound, Using Calcium Influx as an Index
CHO-K1/GluR1 flip/stargazin-expressing cells were plated on a 384 well black bottom transparent plate, and cultured for 2 days in a CO2 incubator (SANYO ELECTRIC Co. Ltd.) at 37° C. The medium of the cell plate was removed. A calcium indicator (Calcium5 Assay Kit, Molecular Devices) was diluted with an assay buffer (HBSS (Thermo Fisher Scientific), 0.1% BSA (Merck Millipoer) and 10 mM HEPES (Thermo Fisher Scientific)), and 1.25 mM probenecid (Dojindo Laboratories) was added thereto. The mixture prepared above was added at 30 μL/well (100 μL/well in case of 96 wells) to the well, and the well was left standing in 37° C., CO2 incubator for 1 hr. The cell plate was set in CellLux (PerkinElmer), a mixture (15 μL) (50 μL/well in case of 96 wells) of […] glutamic acid (final concentration 3 mM) diluted with an assay buffer and a test compound (test compound concentration 30 μM) was added thereto, and variation in the amount of fluorescence was measured for 3 min. The variation of fluorescence level of a well added with final concentration 3 mM of glutamic acid and 300 μM cyclothiazide (TOCRIS) was defined as 100%, the variation of fluorescence level of a well added with final concentration 3 mM of glutamic acid alone was defined as 0%, and the activity of the compound was calculated by the following formula. activity (%)=(X−C)/(T−C)×100 • T: variation of fluorescence level of well added with final concentration 3 mM of glutamic acid and 300 μM cyclothiazide • C: variation of fluorescence level of well added with final concentration 3 mM of glutamic acid alone • X: variation of fluorescence level of well added with test compound
For the compound `CCn1c(C(F)(F)F)nc2c(-c3ccc(C(=O)N4CCOCC4)cc3)cccc21` [Example 2, (4-(1-ethyl-2-(trifluoromethyl)-1H-benzimidazol-4-yl)phenyl)(morpholin-4-yl)methanone], the activation at 30 µM is 79.3%.

With `CCn1c(C(F)(F)F)nc2c(-c3ccc(C(=O)N4CCOCC4)cc3)nccc21` [Example 4, (4-(1-ethyl-2-(trifluoromethyl)-1H-imidazo[4,5-c]pyridin-4-yl)phenyl)(morpholin-4-yl)methanone], the activation at 30 µM worked out at 68.4%.

With `O=C(c1ccc(-c2cccc3c2nc(C(F)(F)F)n3CC(F)F)cc1)N1CCOCC1` [Example 7, (4-(1-(2,2-difluoroethyl)-2-(trifluoromethyl)-1H-benzimidazol-4-yl)phenyl)(morpholin-4-yl)methanone], the activation at 30 µM stood at 83.3%.

For the compound `CCn1c(C(F)(F)F)nc2c(-c3ccc(C(=O)N4CCOCC4)c(F)c3)nccc21` [Example 8, (4-(1-ethyl-2-(trifluoromethyl)-1H-imidazo[4,5-c]pyridin-4-yl)-2-fluorophenyl)(morpholin-4-yl)methanone], the activation at 30 µM stood at 109%.

Consider `CCn1c(C(F)(F)F)nc2c(-c3ccc(C(=O)N4CCO[C@@H](C)C4)c(F)c3)nccc21` [Example 9, (4-(1-ethyl-2-(trifluoromethyl)-1H-imidazo[4,5-c]pyridin-4-yl)-2-fluorophenyl)((2S)-2-methylmorpholin-4-yl)methanone], for which the activation at 30 µM came out at 110%.

As for `C[C@H]1CN(C(=O)c2ccc(-c3cccc4c3nc(C(F)(F)F)n4C)cc2F)CCO1` [Example 11, (2-fluoro-4-(1-methyl-2-(trifluoromethyl)-1H-benzimidazol-4-yl)phenyl)((2S)-2-methylmorpholin-4-yl)methanone], the activation at 30 µM worked out at 80.3%.

As to `Cn1c(C(F)(F)F)nc2c(-c3ccc(C(=O)N4CCOCC4)c(F)c3)cccc21` [Example 12, (2-fluoro-4-(1-methyl-2-(trifluoromethyl)-1H-benzimidazol-4-yl)phenyl)(morpholin-4-yl)methanone], the activation at 30 µM was 84.4%.

In the case of `C[C@H]1CN(C(=O)c2ccc(-c3cccc4c3nc(C(F)(F)F)n4CC(F)F)cc2)CCO1` [Example 13, (4-(1-(2,2-difluoroethyl)-2-(trifluoromethyl)-1H-benzimidazol-4-yl)phenyl)((2S)-2-methylmorpholin-4-yl)methanone], the activation at 30 µM turned out to be 112%.

In the case of `O=C(c1ccc(-c2cccc3c2nc(C(F)(F)F)n3CC(F)F)cc1)N1CCCOCC1` [Example 14, (4-(1-(2,2-difluoroethyl)-2-(trifluoromethyl)-1H-benzimidazol-4-yl)phenyl)(1,4-oxazepan-4-yl)methanone], the activation at 30 µM came out at 92.6%.

As to `O=C(c1ccc(-c2nccc3c2nc(C(F)(F)F)n3CC(F)F)cc1F)N1CCCOCC1` [Example 15, (4-(1-(2,2-difluoroethyl)-2-(trifluoromethyl)-1H-imidazo[4,5-c]pyridin-4-yl)-2-fluorophenyl)(1,4-oxazepan-4-yl)methanone], the activation at 30 µM stood at 72%.

For `O=C(c1ccc(-c2cccc3c2nc(C(F)(F)F)n3CC(F)F)cc1)N1CCOC(C(F)F)C1` (stereo not shown) [Example 16, (4-(1-(2,2-difluoroethyl)-2-(trifluoromethyl)-1H-benzimidazol-4-yl)phenyl)(2-(difluoromethyl)morpholin-4-yl)methanone], the activation at 30 µM worked out at 108%.

Turning to `C[C@H]1CN(C(=O)c2ccc(-c3nccc4c3nc(C(F)(F)F)n4CC(F)F)cc2F)CCO1` [Example 17, (4-(1-(2,2-difluoroethyl)-2-(trifluoromethyl)-1H-imidazo[4,5-c]pyridin-4-yl)-2-fluorophenyl)((2S)-2-methylmorpholin-4-yl)methanone], the activation at 30 µM is 95.1%.

Take `CN(CCC#N)C(=O)c1ccc(-c2nccc3c2nc(C(F)(F)F)n3CC(F)F)cc1F` [Example 19, N-(2-cyanoethyl)-4-(1-(2,2-difluoroethyl)-2-(trifluoromethyl)-1H-imidazo[4,5-c]pyridin-4-yl)-2-fluoro-N-methylbenzamide]: the activation at 30 µM worked out at 81%.
